Results from patent US8372874B2, “Compounds which selectively modulate the CB2 receptor” (Boehringer Ingelheim International GmbH, priority 2008, dated 2013).
Like-named read-outs stand apart in the source and are kept apart here.

Assays:
human CB1R = biological target: T1, human CB1R (Homo sapiens, UniProt P21554); experiment: CB1R mediated modulation of cAMP synthesis; format: cell-based
T1 construct: host or cells: CHO cells
Protocol: C. CB1R Mediated Modulation of cAMP Synthesis:
Compounds of the invention are evaluated for their CB1 agonist or inverse agonistic activity in accordance with the following experimental method.
(§1) CHO cells expressing human CB1R (Euroscreen) are plated at a density of 5000 cells per well in 384 well plates and incubated overnight at 37° C. After removing the media, the cells are treated with test compounds diluted in stimulation buffer containing 1 mM IBMX, 0.25% BSA and 10 uM Forskolin. The assay is incubated for 30 minutes at 37° C. Cells are lysed and the cAMP concentration is measured using DiscoverX-XS cAMP kit, following the manufacturer's protocol. In this setting, agonists will decrease forskolin induced production of cAMP while inverse agonists will further increase forskolin induced production of cAMP. EC50 of agonists are calculated as follows. The maximal amount of cAMP produced by forskolin compared to the level of cAMP inhibited by 1 uM CP55940 is defined as 100%. […] Data is analyzed using a four-parameter logistic model. (Model 205 of XLfit 4.0).

human CB2R = biological target: T2, human CB2R (Homo sapiens, UniProt P34972); experiment: CB2R mediated modulation of cAMP synthesis; format: cell-based
T2 construct: host or cells: CHO cells
Protocol: B. CB2R Mediated Modulation of cAMP Synthesis:
Compounds of the invention are evaluated for their CB2 agonist or inverse agonistic activity in accordance with the following experimental method.
as §1, with “CB2R” for “CB1R”

[1] = CHO cells expressing human CB1R, inhibition of forskolin-stimulated cAMP synthesis, read-out: CB1 EC50
[2] = CHO cells expressing human CB2R, inhibition of forskolin-stimulated cAMP synthesis, read-out: CB2 EC50

T2 sequence (P34972 whole entry): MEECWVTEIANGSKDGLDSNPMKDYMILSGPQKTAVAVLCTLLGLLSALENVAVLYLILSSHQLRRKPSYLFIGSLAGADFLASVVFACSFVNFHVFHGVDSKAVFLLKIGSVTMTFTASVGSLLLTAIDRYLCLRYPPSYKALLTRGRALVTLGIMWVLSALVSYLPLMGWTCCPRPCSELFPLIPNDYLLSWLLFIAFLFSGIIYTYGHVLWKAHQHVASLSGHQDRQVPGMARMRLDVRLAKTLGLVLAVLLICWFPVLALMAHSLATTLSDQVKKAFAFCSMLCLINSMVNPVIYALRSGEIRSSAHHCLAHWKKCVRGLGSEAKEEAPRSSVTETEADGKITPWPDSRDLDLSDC
T1 sequence (P21554 whole entry): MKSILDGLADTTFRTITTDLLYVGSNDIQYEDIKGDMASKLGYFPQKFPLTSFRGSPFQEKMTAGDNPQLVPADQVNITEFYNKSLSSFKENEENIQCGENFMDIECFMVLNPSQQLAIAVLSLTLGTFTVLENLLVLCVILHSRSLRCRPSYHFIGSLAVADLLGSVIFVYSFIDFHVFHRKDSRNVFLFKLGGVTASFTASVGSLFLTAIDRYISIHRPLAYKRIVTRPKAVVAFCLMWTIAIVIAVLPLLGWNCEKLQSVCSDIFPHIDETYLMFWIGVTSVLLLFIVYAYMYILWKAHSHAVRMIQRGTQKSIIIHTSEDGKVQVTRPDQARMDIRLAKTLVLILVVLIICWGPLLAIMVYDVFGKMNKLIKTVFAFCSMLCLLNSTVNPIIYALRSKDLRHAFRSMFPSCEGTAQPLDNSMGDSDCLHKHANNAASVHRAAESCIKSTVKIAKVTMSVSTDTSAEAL

Structure (SMILES)	EC50 (human CB1R) [nM]	EC50 (human CB2R) [nM]	EC50 (human CB1R; [1]) [nM]	EC50 (human CB2R; [2]) [nM]
CC(=O)OCC(C)(C)c1cc(NC(=O)C(C)(C)S(=O)(=O)C2CCOCC2)on1	> 50000	4.2		
CC(C)(C)C(=O)OCC(C)(C)c1cc(NC(=O)C(C)(C)S(=O)(=O)C2CCOCC2)on1	> 50000	50		
CC(O)C(C)(C)c1cc(NC(=O)C(C)(C)S(=O)(=O)C2CCOCC2)on1 (centres unmarked)	> 50000	14		
CC(C)(COC(=O)c1ccccc1)c1cc(NC(=O)C(C)(C)S(=O)(=O)C2CCOCC2)on1	> 50000	11		
C[C@H](O)C(C)(C)c1cc(NC(=O)C(C)(C)S(=O)(=O)C2CCOCC2)on1	> 50000	14		
C[C@@H](O)C(C)(C)c1cc(NC(=O)C(C)(C)S(=O)(=O)C2CCOCC2)on1	> 50000	20		
CC(C)(O)C(C)(C)c1cc(NC(=O)C(C)(C)S(=O)(=O)C2CCOCC2)on1			> 50000	116
CC(O)C(C)(C)c1cc(NC(=O)C(C)(C)S(=O)(=O)CCCC(F)(F)F)on1 (centres unmarked)	> 20000	31		
CC(C)(C(=O)Nc1cc(C2(COC3CCCCO3)CCCCC2)no1)S(=O)(=O)C1CCOCC1 (centres unmarked)	> 50000	22		
CCC(O)C(C)(C)c1cc(NC(=O)C(C)(C)S(=O)(=O)C2CCOCC2)on1 (centres unmarked)	> 50000	29		
COCCOCC(C)(C)c1cc(NC(=O)C(C)(C)S(=O)(=O)C2CCOCC2)on1	> 50000	2.1		
CC(C)C(O)C(C)(C)c1cc(NC(=O)C(C)(C)S(=O)(=O)C2CCOCC2)on1 (centres unmarked)			> 50000	150
CC(C)(C(=O)Nc1cc(C2(COC3CCCCO3)CCCC2)no1)S(=O)(=O)c1ccc(F)cc1 (centres unmarked)	> 50000	5.3		
C[C@H](OC1CCCOC1)C(C)(C)c1cc(NC(=O)C(C)(C)S(=O)(=O)C2CCOCC2)on1 (some centres unmarked)	> 50000	2.8		
CC[C@H](O)C(C)(C)c1cc(NC(=O)C(C)(C)S(=O)(=O)C2CCOCC2)on1	> 50000	47		
CC[C@@H](O)C(C)(C)c1cc(NC(=O)C(C)(C)S(=O)(=O)C2CCOCC2)on1	> 50000	70		
CCn1nc(NC(=O)C(C)(C)S(=O)(=O)C2CCOCC2)nc1-c1ccc(OC)cc1	> 500000	77		
CCn1nc(NC(=O)C(C)(C)S(=O)(=O)C2CCOCC2)nc1-c1ccc(O)cc1	> 20000	10		
COCCOCC1(c2cc(NC(=O)C(C)(C)S(=O)(=O)C3CCOCC3)on2)CCCCC1	> 50000	59		
CC(C)(C(=O)Nc1cc(C2CCOCC2)no1)S(=O)(=O)C1CCOCC1			> 50000	348
CC(C)(C(=O)Nc1cc(C2CCOCC2)no1)S(=O)(=O)CCCC(F)(F)F			> 50000	368
CC(C)(C(=O)Nc1cc(C2CCCO2)no1)S(=O)(=O)C1CCOCC1 (centres unmarked)			> 50000	101
CC(C)(C(=O)Nc1cc(C2CCOC2)no1)S(=O)(=O)CCCC(F)(F)F (centres unmarked)			> 50000	172

Structure (SMILES)	EC50 (human CB1R) [nM]	EC50 (human CB2R) [nM]	EC50 (human CB1R; [1]) [nM]	EC50 (human CB2R; [2]) [nM]
CC(C)(C(=O)Nc1cc([C@@H]2CCCO2)no1)S(=O)(=O)C1CCOCC1			> 50000	138
CC(C)CCS(=O)(=O)C(C)(C)C(=O)Nc1cc(C2CCOCC2)no1	> 20000	97		
CC1(c2cc(NC(=O)C(C)(C)S(=O)(=O)C3CCOCC3)on2)CCCO1 (centres unmarked)	> 50000	13		
COc1ccc(COCC(C)(C)c2cc(NC(=O)C(C)(C)S(=O)(=O)CC3CCOCC3)on2)cc1			> 20000	167
C[C@H](O)C(C)(C)c1cc(NC(=O)C(C)(C)S(=O)(=O)C2CCN(S(C)(=O)=O)CC2)on1			> 50000	107
CO[C@@H](C)C(C)(C)c1cc(NC(=O)C(C)(C)S(=O)(=O)C2CCOCC2)no1	> 50000	10.8		
COCCOCC(C)(C)c1cc(NC(=O)C(C)(C)S(=O)(=O)C2CCOCC2)no1	> 50000	15		
COCCOC(C)(C)c1cc(NC(=O)C(C)(C)S(=O)(=O)C2CCOCC2)on1	> 50000	96		
C[C@H](O)C(C)(C)c1cc(NC(=O)C(C)(C)S(=O)(=O)C2CCOCC2)no1	> 50000	25		
C[C@H](O)C(C)(C)c1cc(NC(=O)C(C)(C)S(=O)(=O)c2ccc(F)cc2)on1	> 50000	42		
CC(C)(COCCO)c1cc(NC(=O)C(C)(C)S(=O)(=O)C2CCOCC2)no1	> 50000	2.4		
COCCOCC(C)(C)c1cc(NC(=O)C(C)(C)S(=O)(=O)CC2CCOCC2)no1	> 50000	15		
CO[C@@H](C)C(C)(C)c1cc(NC(=O)C(C)(C)S(=O)(=O)CC2CCOCC2)no1	> 50000	30		
CC(C)(OCCO)c1cc(NC(=O)C(C)(C)S(=O)(=O)C2CCOCC2)on1	> 50000	28		
COCCOCC(C)(C)c1cc(NC(=O)C(C)(C)S(=O)(=O)C2CCN(S(C)(=O)=O)CC2)on1	> 50000	11		
C[C@H](O)C(C)(C)c1cc(NC(=O)C(C)(C)S(=O)(=O)CC2CCOCC2)no1			> 50000	121
CC(C)(COCCO)c1cc(NC(=O)C(C)(C)S(=O)(=O)C2CCN(S(C)(=O)=O)CC2)on1	> 50000	10		
C[C@H](O)C(C)(C)c1cc(NC(=O)C(C)(C)S(=O)(=O)CC[C@@H]2CCOC2)no1	21000	15		
CC[C@H](C)S(=O)(=O)C(C)(C)C(=O)Nc1cc(C(C)(C)[C@H](C)O)no1			> 50000	250
COCCOCC(C)(C)c1cc(NC(=O)C(C)(C)S(=O)(=O)C[C@H]2CCOC2)on1	> 50000	98		
COCCOCC(C)(C)c1cc(NC(=O)C(C)(C)S(=O)(=O)CCC(F)(F)F)on1	> 50000	27		
CCOCCOCC(C)(C)c1cc(NC(=O)C(C)(C)S(=O)(=O)C2CCOCC2)on1	> 50000	1.5		
CC(C)(COCCO)c1cc(NC(=O)C(C)(C)S(=O)(=O)CC2CCOCC2)on1	> 50000	13		
